Article PMC3483245, “Optimization of a direct spectrophotometric method to investigate the kinetics and inhibition of sialidases” (BMC Biochemistry, 2012)
Entries after “also recorded” stand apart in the source; their conditions may differ.

Columns and labels:
NanA [1] = molecular target: T1, NanA (Streptococcus pneumoniae, UniProt P62576); assay: biochemical; assay type: biochemical; details: for inhibition of NanA (in words): modified direct method
NanC [2] = molecular target: T2, NanC (Streptococcus pneumoniae, UniProt A0A0H2UQE4); assay: biochemical
T2 sequence (A0A0H2UQE4 entry or part of it): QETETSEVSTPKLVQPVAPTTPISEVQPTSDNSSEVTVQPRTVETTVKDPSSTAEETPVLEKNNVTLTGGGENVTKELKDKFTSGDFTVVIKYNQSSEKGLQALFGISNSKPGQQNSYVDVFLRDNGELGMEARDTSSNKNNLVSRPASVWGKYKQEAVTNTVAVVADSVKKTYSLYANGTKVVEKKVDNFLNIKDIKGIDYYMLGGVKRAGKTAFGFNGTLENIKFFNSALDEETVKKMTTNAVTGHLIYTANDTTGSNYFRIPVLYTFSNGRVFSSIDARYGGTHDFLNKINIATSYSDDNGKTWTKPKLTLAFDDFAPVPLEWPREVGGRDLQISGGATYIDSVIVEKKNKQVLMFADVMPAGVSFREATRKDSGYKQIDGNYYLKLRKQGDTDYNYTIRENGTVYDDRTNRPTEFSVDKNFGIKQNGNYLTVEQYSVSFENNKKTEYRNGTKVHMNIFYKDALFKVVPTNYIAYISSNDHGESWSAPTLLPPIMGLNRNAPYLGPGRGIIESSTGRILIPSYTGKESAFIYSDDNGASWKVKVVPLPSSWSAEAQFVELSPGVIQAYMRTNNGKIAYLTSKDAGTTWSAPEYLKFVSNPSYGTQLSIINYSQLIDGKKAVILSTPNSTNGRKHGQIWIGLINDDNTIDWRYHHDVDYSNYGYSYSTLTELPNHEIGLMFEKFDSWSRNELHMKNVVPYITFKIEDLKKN

NanA [3] = molecular target: T1, NanA; assay: Hydrolysis of p-NP-Neu5Ac by NanA, direct spectrophotometric method; assay type: biochemical; details: 30°C, 20 mM MES pH 6.0, 400 nm
NanC [4] = molecular target: T2, NanC; assay: Hydrolysis of p-NP-Neu5Ac by NanC, direct spectrophotometric method; assay type: biochemical; details: 30°C, 20 mM MES pH 6.0, 400 nm
NanA [5] = molecular target: T1, NanA; assay: Hydrolysis of p-NP-Neu5Ac by NanA, conventional indirect spectrophotometric method; assay type: biochemical; details: 37°C, stopped with 0.5 M Na2CO3 pH 9.0, 405 nm
Protocol: (§1) The activity of the sialidases was assayed colorimetrically and fluorometrically using the substrates p-NP-Neu5Ac (Sigma, St. Louis, Miss) and 4MU-Neu5Ac (Sigma, St- Louis, Miss), respectively. Conventional indirect assays were performed as previously described. Briefly, the reaction mixtures containing the substrates and up to 100 nM sialidase were incubated at 37°C and stopped by the addition of 0.5 M Na2CO3 pH 9.0 for the colorimetric assay or 0.25 M glycine pH 10.0 for the fluorimetric assay. Released p-NP was detected spectrophometrically at 405 nm. The fluorescence associated with the release of 4-MU was measured at the excitation wavelength of 365 nm and an emission wavelength of 445 nm. These measurements were performed using an EnVision microplate reader (Perkin Elmer, Waltham, Mass.).

NanB [6] = molecular target: T3, NanB (Streptococcus pneumoniae serotype 4, UniProt Q54727); assay: Hydrolysis of p-NP-Neu5Ac by NanB, conventional indirect spectrophotometric method; assay type: biochemical; details: 37°C, stopped with 0.5 M Na2CO3 pH 9.0, 405 nm
T3 sequence (Q54727 30-697): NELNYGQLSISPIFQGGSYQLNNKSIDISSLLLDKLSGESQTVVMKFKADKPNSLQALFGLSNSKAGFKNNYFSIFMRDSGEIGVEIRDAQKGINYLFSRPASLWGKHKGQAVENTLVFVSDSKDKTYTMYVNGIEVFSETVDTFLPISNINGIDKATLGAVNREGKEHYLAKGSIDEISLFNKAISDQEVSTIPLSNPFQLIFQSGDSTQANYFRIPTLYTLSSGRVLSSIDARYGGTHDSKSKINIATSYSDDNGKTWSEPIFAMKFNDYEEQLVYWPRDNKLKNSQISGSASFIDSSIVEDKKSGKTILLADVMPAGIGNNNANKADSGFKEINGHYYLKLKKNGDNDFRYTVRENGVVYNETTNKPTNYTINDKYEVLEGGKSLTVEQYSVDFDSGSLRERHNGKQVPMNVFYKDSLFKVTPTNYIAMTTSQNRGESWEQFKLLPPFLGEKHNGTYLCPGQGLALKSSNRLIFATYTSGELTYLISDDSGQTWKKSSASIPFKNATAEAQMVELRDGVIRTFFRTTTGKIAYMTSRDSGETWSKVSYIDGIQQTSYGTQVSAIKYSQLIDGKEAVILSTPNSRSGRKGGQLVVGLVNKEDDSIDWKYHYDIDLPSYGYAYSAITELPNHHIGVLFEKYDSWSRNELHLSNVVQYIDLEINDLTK
Protocol: as §1

NanC [7] = molecular target: T2, NanC; assay: Hydrolysis of p-NP-Neu5Ac by NanC, conventional indirect spectrophotometric method; assay type: biochemical; details: 37°C, stopped with 0.5 M Na2CO3 pH 9.0, 405 nm
Protocol: as §1

NanB [8] = details: direct method, 30°C, 20 mM MES pH 6.0, 400 nm
NanB [9] = molecular target: T3, NanB; assay: biochemical
pneumococcal sialidases = system: pneumococcal sialidases; parameters: method as in PMID 18835278; details: buffer substance; cited from earlier work
[10] = first order kinetics up to 500 μM substrate
[11] = first order kinetics up to 1,200 μM substrate

T1 sequence (P62576 54-1035): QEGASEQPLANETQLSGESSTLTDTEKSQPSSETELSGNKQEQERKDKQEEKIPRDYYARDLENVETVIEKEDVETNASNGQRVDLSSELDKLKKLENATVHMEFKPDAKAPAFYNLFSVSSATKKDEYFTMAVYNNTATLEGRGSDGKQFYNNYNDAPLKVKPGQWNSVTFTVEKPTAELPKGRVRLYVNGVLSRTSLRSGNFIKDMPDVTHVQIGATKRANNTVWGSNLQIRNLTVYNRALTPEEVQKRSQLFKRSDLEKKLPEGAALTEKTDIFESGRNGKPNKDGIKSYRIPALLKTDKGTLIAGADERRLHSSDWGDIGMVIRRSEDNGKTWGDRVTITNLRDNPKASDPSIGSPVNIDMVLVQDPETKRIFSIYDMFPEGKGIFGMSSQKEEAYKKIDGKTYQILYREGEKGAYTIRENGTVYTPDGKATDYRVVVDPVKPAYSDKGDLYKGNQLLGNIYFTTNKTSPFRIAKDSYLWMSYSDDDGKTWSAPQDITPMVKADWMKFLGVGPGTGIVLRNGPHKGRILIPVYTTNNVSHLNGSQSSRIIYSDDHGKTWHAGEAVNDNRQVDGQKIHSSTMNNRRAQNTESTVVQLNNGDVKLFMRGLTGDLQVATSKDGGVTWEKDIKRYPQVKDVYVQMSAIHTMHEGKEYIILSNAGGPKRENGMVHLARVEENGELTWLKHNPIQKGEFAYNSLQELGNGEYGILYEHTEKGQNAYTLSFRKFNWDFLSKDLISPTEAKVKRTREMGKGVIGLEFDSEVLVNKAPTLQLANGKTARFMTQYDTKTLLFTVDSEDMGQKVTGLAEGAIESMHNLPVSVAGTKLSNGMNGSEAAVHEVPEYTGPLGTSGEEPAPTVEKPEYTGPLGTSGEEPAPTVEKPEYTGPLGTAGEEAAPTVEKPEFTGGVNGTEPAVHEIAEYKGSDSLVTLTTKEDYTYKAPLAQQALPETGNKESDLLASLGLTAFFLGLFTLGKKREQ

With CC(=O)N[C@H]1[C@H]([C@H](O)[C@H](O)CO)OC(C(=O)O)=C[C@@H]1O [Neu5Ac2en, 2-deoxy-2,3-didehydro-N-acetylneuraminic acid] the “inhibition of NanA (in words)” value (NanA [1]) was “significant inhibition; also recorded: inhibition constants in the micromolar range” and the Ki (NanC [2]) was 2010 µM.
With CC(=O)N[C@H]1[C@H]([C@H](O)[C@H](O)CO)OC(Oc2ccc([N+](=O)[O-])cc2)(C(=O)O)C[C@@H]1O (some centres unmarked) [p-NP-Neu5Ac, 2-O-(p-nitrophenyl)-N-acetylneuraminic acid] the “k cat / K m” value (NanA [3]) was “(3.5 ± 0.3) × 10^5 M^-1·s^-1”, the K m (NanA [3]; [10]) was greater than 500 µM and the k cat (NanA [3]; [10]) was greater than 175 s⁻¹. The “k cat / K m” value (NanC [4]) was “(3.4 ± 0.3) × 10^4 M^-1·s^-1”, the K m (NanC [4]; [10]) was greater than 500 µM and the k cat (NanC [4]; [10]) was greater than 17 s⁻¹. The “k cat / K m” value (NanA [5]) was “(8.4 ± 0.9) × 10^4 M^-1·s^-1”, the K m (NanA [5]; [11]) was >1,100 μM and the k cat (NanA [5]; [11]) was greater than 490 s⁻¹. For the same compound, the “k cat / K m” value (NanB [6]) was “(1.1 ± 0.1) × 10^2 M^-1·s^-1”, the K m (NanB [6]; [11]) was >1,200 μM and the k cat (NanB [6]; [11]) was greater than 11 s⁻¹. The “k cat / K m” value (NanC [7]) was “(1.2 ± 0.1) × 10^4 M^-1·s^-1”, the K m (NanC [7]; [11]) was greater than 700 µM and the k cat (NanC [7]; [11]) was greater than 11 s⁻¹. The “k cat / K m” value (NanB [8]) was “(2.7 ± 0.3) × 10^2 M^-1·s^-1”, the K m (NanB [8]; [10]) was greater than 500 µM and the k cat (NanB [8]; [10]) was greater than 0.14 s⁻¹.
In the case of CC(=O)N[C@H]1[C@H]([C@H](O)[C@H](O)CO)OC(C(=O)O)=C[C@@H]1N=C(N)N [Zanamivir], the Ki (NanA [1]) is reported as 720 µM, the “inhibition of NanA (in words)” value (NanA [1]) is reported as “Very limited inhibitory effects” and the Ki (NanB [9]) is reported as greater than 7500 µM. The Ki (NanC [2]) was greater than 7500 µM.
In the case of O=S(=O)(O)CCNC1CCCCC1 [CHES, 2-n-cyclohexylamino ethane sulfonic acid], the “inhibition of pneumococcal sialidases (in words)” value (pneumococcal sialidases) is listed as “weak inhibitor”.
With CCC(CC)O[C@@H]1C=C(C(=O)O)C[C@H](N)[C@H]1NC(C)=O [Oseltamivir carboxylate] the Ki (NanA [1]) was 1.77 µM, the “inhibition of NanA (in words)” value (NanA [1]) was “significant inhibition; also recorded: inhibition constants in the micromolar range” and the Ki (NanB [9]) was greater than 7500 µM. The Ki (NanC [2]) was greater than 7500 µM.
